Measured values: patent publication US20230310406A1 (priority 2020, published 2023)
Like-named read-outs stand apart in the source and are kept apart here.

Assays:
[1] = molecular target: Mu (MOP) receptor (Homo sapiens, UniProt P35372); format: biochemical
[2] = molecular target: Kappa (KOP) receptor (Homo sapiens, UniProt P41145); format: biochemical
[3] = molecular target: ORL1 (NOP) receptor (Homo sapiens, UniProt P41146); assay: in vitro pharmacology at ORL1 receptor; format: biochemical
[4] = system: Sigma opiate sites; assay: in vitro affinity at sigma opiate sites; format: binding
[5] = molecular target: T1, adrenergic receptor Alpha 1B (Homo sapiens, UniProt P35368); assay: in vitro antagonistic activity at adrenergic Alpha 1B; format: biochemical
T1 sequence (P35368 1-520): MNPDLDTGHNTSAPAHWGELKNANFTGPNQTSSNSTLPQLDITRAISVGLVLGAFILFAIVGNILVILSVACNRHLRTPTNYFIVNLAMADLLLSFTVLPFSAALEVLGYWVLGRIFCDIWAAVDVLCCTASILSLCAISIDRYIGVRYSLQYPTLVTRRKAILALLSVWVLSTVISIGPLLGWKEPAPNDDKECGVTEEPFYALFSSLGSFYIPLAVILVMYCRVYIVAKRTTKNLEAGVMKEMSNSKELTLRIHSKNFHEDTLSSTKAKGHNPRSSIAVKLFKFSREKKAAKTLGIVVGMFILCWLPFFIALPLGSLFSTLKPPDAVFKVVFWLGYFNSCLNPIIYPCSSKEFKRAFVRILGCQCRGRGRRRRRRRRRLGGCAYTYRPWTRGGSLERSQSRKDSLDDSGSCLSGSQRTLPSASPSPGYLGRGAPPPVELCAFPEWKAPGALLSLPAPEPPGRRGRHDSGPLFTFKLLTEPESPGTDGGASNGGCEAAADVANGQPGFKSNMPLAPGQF

[6] = molecular target: T2, adrenergic receptor Alpha 2B (Homo sapiens, UniProt P18089); assay: in vitro antagonistic activity at adrenergic Alpha 2B; format: biochemical
T2 sequence (P18089 1-450): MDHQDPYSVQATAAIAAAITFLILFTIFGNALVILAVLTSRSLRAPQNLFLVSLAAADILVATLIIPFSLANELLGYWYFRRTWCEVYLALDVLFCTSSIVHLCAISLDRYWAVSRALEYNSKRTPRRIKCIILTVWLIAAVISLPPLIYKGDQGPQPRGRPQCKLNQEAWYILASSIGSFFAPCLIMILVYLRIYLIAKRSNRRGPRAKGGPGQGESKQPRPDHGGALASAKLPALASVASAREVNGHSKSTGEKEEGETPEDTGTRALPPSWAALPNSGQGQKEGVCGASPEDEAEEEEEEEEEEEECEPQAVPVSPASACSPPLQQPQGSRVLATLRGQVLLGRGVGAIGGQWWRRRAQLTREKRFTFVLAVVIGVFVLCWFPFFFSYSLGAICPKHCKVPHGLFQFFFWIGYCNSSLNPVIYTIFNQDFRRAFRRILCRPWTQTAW

[7] = molecular target: T3, adrenergic receptor Alpha 2C (Homo sapiens, UniProt P18825); assay: in vitro antagonistic activity at adrenergic Alpha 2C; format: biochemical
T3 sequence (P18825 1-462): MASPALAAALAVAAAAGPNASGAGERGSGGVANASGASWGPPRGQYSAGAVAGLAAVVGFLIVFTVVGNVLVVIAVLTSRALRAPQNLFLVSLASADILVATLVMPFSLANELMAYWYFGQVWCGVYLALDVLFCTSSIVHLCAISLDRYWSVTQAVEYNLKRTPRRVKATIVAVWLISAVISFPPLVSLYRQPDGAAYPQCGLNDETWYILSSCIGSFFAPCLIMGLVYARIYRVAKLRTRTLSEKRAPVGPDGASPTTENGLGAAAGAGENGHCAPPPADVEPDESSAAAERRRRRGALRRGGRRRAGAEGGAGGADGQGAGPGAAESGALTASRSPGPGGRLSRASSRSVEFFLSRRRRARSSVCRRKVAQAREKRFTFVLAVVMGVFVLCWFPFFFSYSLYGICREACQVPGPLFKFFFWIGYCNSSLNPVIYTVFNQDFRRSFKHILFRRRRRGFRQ

[8] = molecular target: histamine H1 receptor (Homo sapiens, UniProt P35367); assay: in vitro antagonistic activity at histamine H1; format: biochemical
Chain of histamine H1 receptor (P35367 whole entry, species assumed): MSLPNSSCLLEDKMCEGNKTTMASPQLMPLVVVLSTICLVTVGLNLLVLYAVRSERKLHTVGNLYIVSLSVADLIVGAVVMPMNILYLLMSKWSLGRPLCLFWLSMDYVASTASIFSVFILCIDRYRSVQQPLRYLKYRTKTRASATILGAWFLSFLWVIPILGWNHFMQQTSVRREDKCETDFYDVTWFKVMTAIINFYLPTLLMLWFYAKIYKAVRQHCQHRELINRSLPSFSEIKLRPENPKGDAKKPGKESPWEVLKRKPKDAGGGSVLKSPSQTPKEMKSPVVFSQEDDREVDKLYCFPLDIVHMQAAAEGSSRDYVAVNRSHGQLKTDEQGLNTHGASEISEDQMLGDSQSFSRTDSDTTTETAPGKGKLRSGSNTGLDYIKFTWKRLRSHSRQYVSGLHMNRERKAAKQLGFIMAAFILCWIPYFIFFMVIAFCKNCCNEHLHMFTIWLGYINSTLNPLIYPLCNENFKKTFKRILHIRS

[9] = molecular target: T4, cholinergic muscarinic receptor 1 (Homo sapiens, UniProt P11229); assay: in vitro antagonistic activity at muscarinic receptor 1; format: biochemical
T4 sequence (P11229 1-460): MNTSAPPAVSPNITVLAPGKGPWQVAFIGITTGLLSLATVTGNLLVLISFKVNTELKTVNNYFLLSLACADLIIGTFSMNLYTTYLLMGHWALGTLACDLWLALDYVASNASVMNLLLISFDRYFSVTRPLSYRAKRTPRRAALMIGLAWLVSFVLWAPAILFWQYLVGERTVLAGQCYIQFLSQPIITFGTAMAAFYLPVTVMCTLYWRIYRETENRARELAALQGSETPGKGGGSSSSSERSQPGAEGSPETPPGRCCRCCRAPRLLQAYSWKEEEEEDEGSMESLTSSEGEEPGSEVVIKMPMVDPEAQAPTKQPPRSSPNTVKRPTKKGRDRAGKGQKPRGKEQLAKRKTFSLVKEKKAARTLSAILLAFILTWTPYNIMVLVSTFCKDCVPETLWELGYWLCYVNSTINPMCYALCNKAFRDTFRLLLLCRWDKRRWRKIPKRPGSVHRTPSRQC

[10] = molecular target: cholinergic muscarinic receptor 3 (Homo sapiens, UniProt P20309); assay: in vitro antagonistic activity at muscarinic receptor 3; format: biochemical
Chain of cholinergic muscarinic receptor 3 (P20309 whole entry): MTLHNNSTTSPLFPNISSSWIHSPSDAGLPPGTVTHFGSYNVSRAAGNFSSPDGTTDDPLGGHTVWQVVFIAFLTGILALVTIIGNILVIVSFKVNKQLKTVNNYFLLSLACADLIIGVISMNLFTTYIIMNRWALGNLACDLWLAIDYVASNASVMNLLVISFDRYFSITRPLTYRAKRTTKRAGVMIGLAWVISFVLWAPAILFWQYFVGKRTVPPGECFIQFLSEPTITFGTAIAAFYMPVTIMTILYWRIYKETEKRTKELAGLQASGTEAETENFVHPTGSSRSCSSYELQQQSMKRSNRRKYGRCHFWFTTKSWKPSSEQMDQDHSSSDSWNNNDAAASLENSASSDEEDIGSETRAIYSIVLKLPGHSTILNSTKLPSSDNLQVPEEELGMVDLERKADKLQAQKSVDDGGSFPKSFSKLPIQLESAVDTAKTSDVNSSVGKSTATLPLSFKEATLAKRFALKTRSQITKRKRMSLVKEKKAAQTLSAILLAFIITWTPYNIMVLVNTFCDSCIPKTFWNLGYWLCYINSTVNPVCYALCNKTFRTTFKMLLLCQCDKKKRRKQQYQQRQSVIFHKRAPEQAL

[11] = molecular target: T5, cholinergic muscarinic receptor 4 (Homo sapiens, UniProt P08173); assay: in vitro antagonistic activity at muscarinic receptor 4; format: biochemical
T5 sequence (P08173 1-479): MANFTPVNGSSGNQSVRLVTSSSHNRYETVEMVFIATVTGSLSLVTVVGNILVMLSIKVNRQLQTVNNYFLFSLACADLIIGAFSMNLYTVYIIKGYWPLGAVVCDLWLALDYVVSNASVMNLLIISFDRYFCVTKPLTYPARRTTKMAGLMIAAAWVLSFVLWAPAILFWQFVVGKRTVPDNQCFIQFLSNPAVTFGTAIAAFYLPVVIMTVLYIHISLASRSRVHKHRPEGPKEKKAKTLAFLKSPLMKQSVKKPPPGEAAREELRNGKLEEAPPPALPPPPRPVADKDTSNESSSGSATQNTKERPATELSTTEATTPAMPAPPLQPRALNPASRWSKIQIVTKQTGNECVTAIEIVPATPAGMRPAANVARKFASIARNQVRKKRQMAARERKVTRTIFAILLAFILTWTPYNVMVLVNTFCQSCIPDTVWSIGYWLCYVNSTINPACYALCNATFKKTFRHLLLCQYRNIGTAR

[12] = molecular target: T6, cholinergic muscarinic receptor 5 (Homo sapiens, UniProt P08912); assay: in vitro antagonistic activity at muscarinic receptor 5; format: biochemical
T6 sequence (P08912 1-532): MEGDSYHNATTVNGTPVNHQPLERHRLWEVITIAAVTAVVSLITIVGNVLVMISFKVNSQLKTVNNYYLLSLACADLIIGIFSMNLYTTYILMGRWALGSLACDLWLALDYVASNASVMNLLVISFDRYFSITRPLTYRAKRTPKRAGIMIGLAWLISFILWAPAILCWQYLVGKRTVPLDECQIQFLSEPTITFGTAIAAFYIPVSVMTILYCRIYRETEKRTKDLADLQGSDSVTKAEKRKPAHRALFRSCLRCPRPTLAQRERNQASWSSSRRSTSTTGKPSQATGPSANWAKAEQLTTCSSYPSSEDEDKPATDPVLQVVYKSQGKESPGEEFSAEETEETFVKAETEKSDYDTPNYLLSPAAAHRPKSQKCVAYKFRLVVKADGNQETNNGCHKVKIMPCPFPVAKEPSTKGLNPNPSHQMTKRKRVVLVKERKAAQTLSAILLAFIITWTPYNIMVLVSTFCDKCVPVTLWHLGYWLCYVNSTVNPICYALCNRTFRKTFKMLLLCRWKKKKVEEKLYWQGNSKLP

[13] = molecular target: T7, dopamine D4 receptor (Homo sapiens, UniProt P21917); assay: in vitro antagonistic activity at dopamine D4; format: biochemical
T7 sequence (P21917 1-419): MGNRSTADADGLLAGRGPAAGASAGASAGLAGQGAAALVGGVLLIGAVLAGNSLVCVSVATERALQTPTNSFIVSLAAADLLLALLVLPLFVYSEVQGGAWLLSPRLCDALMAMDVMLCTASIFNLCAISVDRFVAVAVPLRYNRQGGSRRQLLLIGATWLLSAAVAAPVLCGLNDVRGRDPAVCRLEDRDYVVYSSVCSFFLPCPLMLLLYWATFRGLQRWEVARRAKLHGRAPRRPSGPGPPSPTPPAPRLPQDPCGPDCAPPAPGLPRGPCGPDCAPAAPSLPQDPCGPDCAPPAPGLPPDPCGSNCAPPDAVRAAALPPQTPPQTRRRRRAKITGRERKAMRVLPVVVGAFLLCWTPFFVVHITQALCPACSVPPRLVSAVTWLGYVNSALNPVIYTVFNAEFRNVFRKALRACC

[14] = molecular target: T8, serotonin receptor 1A (Homo sapiens, UniProt P08908); assay: in vitro antagonistic activity at serotonin receptor 1A; format: biochemical
T8 sequence (P08908 1-422): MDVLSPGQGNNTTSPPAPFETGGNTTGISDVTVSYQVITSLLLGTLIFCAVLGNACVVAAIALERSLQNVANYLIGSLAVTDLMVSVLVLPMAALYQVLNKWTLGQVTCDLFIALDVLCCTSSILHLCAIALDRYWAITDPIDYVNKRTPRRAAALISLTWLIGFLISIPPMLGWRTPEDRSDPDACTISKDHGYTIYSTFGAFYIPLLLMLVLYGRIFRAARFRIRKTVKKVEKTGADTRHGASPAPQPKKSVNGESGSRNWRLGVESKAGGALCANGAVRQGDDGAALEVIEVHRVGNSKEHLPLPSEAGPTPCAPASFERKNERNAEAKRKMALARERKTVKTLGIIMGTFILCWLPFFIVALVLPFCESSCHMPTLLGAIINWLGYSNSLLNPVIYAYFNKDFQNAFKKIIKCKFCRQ

[15] = molecular target: serotonin receptor 1B (Homo sapiens, UniProt P28222); assay: in vitro antagonistic activity at serotonin receptor 1B; format: biochemical
Chain of serotonin receptor 1B (P28222 whole entry): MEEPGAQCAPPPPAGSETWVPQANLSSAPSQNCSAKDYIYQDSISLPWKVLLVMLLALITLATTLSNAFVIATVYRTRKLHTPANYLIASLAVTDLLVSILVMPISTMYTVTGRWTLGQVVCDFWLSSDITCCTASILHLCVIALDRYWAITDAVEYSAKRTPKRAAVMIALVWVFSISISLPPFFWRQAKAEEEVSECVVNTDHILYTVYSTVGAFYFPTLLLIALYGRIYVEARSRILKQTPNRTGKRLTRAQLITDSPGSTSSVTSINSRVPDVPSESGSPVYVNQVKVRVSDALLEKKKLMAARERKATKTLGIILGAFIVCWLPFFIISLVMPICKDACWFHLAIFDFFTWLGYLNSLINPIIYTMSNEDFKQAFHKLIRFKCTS

Chain of Kappa (KOP) receptor (P41145 whole entry): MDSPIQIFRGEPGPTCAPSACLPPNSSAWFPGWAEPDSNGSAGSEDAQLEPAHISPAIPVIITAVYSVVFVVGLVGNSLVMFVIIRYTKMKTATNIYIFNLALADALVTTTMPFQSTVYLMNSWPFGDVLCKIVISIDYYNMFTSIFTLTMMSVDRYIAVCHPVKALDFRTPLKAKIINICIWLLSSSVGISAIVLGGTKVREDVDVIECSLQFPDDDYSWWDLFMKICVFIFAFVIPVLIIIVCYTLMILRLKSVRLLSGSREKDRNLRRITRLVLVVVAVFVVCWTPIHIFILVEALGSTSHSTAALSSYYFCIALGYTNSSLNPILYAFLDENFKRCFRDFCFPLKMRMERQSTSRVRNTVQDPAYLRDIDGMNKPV
Chain of ORL1 (NOP) receptor (P41146 whole entry): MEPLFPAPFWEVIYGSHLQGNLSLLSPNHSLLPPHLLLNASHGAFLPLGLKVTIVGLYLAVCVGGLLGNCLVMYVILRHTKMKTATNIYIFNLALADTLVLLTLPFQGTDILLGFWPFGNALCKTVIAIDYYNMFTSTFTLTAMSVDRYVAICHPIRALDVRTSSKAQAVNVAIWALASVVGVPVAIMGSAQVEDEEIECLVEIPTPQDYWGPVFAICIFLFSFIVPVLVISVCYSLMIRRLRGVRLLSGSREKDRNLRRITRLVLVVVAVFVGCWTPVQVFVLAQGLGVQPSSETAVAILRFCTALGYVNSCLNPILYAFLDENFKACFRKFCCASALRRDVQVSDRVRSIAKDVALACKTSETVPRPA
Chain of Mu (MOP) receptor (P35372 whole entry): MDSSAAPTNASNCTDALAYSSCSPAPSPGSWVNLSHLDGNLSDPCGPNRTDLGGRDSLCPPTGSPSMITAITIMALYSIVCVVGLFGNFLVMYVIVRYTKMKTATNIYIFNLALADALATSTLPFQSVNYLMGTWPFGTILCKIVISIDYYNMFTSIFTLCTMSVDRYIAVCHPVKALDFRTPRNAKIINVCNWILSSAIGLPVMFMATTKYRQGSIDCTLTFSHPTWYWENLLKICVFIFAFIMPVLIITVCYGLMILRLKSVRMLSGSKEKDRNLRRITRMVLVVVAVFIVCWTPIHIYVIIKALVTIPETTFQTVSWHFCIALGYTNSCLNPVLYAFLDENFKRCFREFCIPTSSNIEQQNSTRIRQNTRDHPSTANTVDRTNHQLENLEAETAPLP

SMILES | Receptor Mu (MOP): mode of action [1] | Receptor Kappa (KOP): mode of action [2] | Receptor ORL1 (NOP): mode of action [3] | Receptor ORL1 (NOP): mode of action ([3]; listed as compound 1) | Receptor Sigma: affinity ([4]; listed as compound 1) | activity at adrenergic receptor Alpha 1B [5] | activity at adrenergic receptor Alpha 2B [6] | activity at adrenergic receptor Alpha 2C [7] | activity at histamine H1 receptor [8] | activity at cholinergic muscarinic receptor 1 [9] | activity at cholinergic muscarinic receptor 3 [10] | activity at cholinergic muscarinic receptor 4 [11] | activity at cholinergic muscarinic receptor 5 [12] | activity at dopamine D4 receptor [13] | activity at serotonin receptor 1A [14] | activity at serotonin receptor 1B [15] | Receptor Sigma: affinity [4]
CCC(=O)NC1CC(C)N(CCc2ccccc2)CC1C (stereo not drawn) [Compound 1, 1-(2-phenylethyl)2,5-dimethyl-4-propionilaminopiperidine] | partial agonist | Antagonist | Antagonist | antagonist | activity | antagonistic activity | antagonistic activity | antagonistic activity | antagonistic activity | antagonistic activity | antagonistic activity | antagonistic activity | antagonistic activity | antagonistic activity | antagonistic activity | antagonistic activity | –
C=CCN1CC[C@]23c4c5ccc(O)c4O[C@H]2C(=O)CC[C@@]3(O)[C@H]1C5 [Naloxone] | – | – | – | – | – | – | – | – | – | – | – | – | – | – | – | – | Weak
O=C1CC[C@@]2(O)[C@H]3Cc4ccc(O)c5c4[C@@]2(CCN3CC2CC2)[C@H]1O5 [Naltrexone] | – | – | – | – | – | – | – | – | – | – | – | – | – | – | – | – | Weak
